From ChEMBL document CHEMBL1122399, “Synthesis and antibacterial activities of new (alpha-hydrazinobenzyl)cephalosporins” (1983)
≈ marks a conversion by molar mass, not a printed value.

Experiments:
Type in all cases: functional
[1] = In vitro antibacterial activity was determined by 2 fold serial agar dilution method with multilocular device in gram positive bacteria
[2] = test system: Bacteria; assay: In vitro antibacterial activity was determined by 2 fold serial agar dilution method with multilocular device in gram negative bacteria
[3] = In vitro antibacterial activity was determined by 2 fold serial agar dilution method in gram positive resistant bacteria
[4] = test system: Bacteria; assay: In vitro antibacterial activity was determined by 2 fold serial agar dilution method in gram negative resistant bacteria

| Structure (SMILES) | MIC [1] [µg/mL] | MIC [2] [µg/mL] | MIC [3] [µg/mL] | MIC [4] [µg/mL] |
| --- | --- | --- | --- | --- |
| CC1=C(C(=O)O)N2C(=O)[C@@H](NC(=O)C(c3ccccc3)N(C)N)C2SC1 (stereo partly specified) | 6.74 (≈ 17.9 µM) | 100 (≈ 266 µM) | 50 (≈ 133 µM) | > 100 |
| NNC(C(=O)N[C@@H]1C(=O)N2C(C(=O)O)=C(Cl)CSC12)c1ccccc1 (stereo partly specified) | 1.33 (≈ 3.47 µM) | 21.4 (≈ 55.9 µM) | 31.4 (≈ 82 µM) | 50 (≈ 131 µM) |
| CC(=O)OCC1=C(C(=O)O)N2C(=O)[C@@H](NC(=O)C(c3ccccc3)N(C)N)C2SC1 (stereo partly specified) | 1.33 (≈ 3.06 µM) | 54.5 (≈ 125 µM) | 24.9 (≈ 57.3 µM) | > 100 |
| CC1=C(C(=O)O)N2C(=O)[C@@H](NC(=O)C(NN)c3ccccc3)C2SC1 (stereo partly specified) | 12.5 (≈ 34.5 µM) | > 100 | 62.9 (≈ 174 µM) | – |
| CC(=O)OCC1=C(C(=O)O)N2C(=O)[C@@H](NC(=O)C(NN)c3ccccc3)C2SC1 (stereo partly specified) | 1.68 (≈ 4 µM) | 73.4 (≈ 175 µM) | 31.5 (≈ 74.9 µM) | > 100 |
| N[C@@H](C(=O)N[C@@H]1C(=O)N2C(C(=O)O)=C(Cl)CS[C@H]12)c1ccccc1 [CEFACLOR ANHYDROUS] | 0.16 (≈ 0.435 µM) | 1 (≈ 2.72 µM) | 15.7 (≈ 42.7 µM) | 7.8 (≈ 21.2 µM) |
| CC1=C(C(=O)O)N2C(=O)[C@@H](NC(=O)[C@H](N)c3ccccc3)[C@H]2SC1 [CEPHALEXIN ANHYDROUS] | 0.58 (≈ 1.67 µM) | 5.7 (≈ 16.4 µM) | 24.9 (≈ 71.7 µM) | 7.8 (≈ 22.5 µM) |
| CC(=O)OCC1=C(C(=O)O)N2C(=O)[C@@H](NC(=O)[C@H](N)c3ccccc3)[C@H]2SC1 [CEPHALOGLYCIN] | 1.33 (≈ 3.28 µM) | 8.5 (≈ 21 µM) | 19.8 (≈ 48.8 µM) | 79.3 (≈ 196 µM) |
